Source: US9469854B2, “Pharmaceutical composition for treating liver diseases” (Academia Sinica, priority 2014, dated 2016)

What was measured:
Experiment in all cases: Western blot protein expression in HepG2 cells
Assay type in all cases: cell-based, human
ACACA = conditions: HepG2, mimic transfection, 72 h
Experimental: (§1) The human HepG2 cells and HEK 293T cells used in the following examples were originally obtained from the American Tissue Culture Collection (ATCC, USA). The human HCC HepG2 cell line was cultured in Minimum Essential Medium Eagle (Sigma) supplemented with 10% fetal bovine serum (FBS) (Invitrogen), 2.2 g/L of sodium bicarbonate (Sigma), 0.1 mM of non-essential amino acids (Caisson), 1 mM of sodium pyruvate (Invitrogen), and 10 of ml/L penicillin-streptomycin-amphotericin solution (Biological Industries). Human HEK-293T cells were maintained in high-glucose Dulbecco's modified eagle medium (Invitrogen) supplemented with 10% FBS and 3.7 g/L of sodium bicarbonate (Sigma). Both cell lines were cultured at 37° C. and 5% CO2.
(§2) The HepG2 cells were transfected at a density of 5×10^4 cells per well in a 24-well culture plates with either 50 nM of hsa-miR-21-3p (miR-21-3p mimic) or negative-control mimic (NC mimic), or with either 100 nM of hsa-miR-21-3p inhibitor (miR-21-3p inhibitor) or negative-control inhibitor (NC inhibitor) by using the DharmaFECT 4 transfection reagent (Thermo Scientific Dharmacon) according to the manufacturer's instructions. Cells were incubated for 24 h or 48 h with a microRNA mimic or inhibitor prior to RNA purification for gene expression analysis, and were incubated for 72 h for protein expression analysis.
(§3) Total cell lysates were prepared using a lysis buffer (7 M of urea, 4% CHAPS, 2 M of thiourea, 40 mM of Tris, 65 mM of dithioerythritol). Protein samples were separated using 12.5% SDS-PAGE and then transferred to PVDF membranes. The following primary antibodies were used: rabbit polyclone anti-MAT1A (1:800, GeneTex), anti-MAT2A (1:1000, GeneTex), anti-MAT2B (1:1000, GeneTex), anti-ACACB (1:1000, Sigma), anti-DGAT2 (1:1000, GeneTex) and anti-GAPDH (1:3000, GeneTex) and mouse monoclone anti-ACACA (1:1000, Millipore). The goat polyclonal anti-rabbit or anti-mouse IgG antibody conjugated with HRP (1:5000, abcam) was used as the secondary antibody. The bands were imaged using the LAS-4000 mini luminescent image analyzer (Fujifilm). The quantification of western blot analysis was achieved by using Image J software. The protein expression levels were normalized to the GAPDH levels.

ACACB = conditions: HepG2, mimic transfection, 72 h
Experimental: as §1, §2, §3

DGAT2 = conditions: HepG2, miR-21-3p over-expressed, 72 h
Experimental: as §1, §2, §3

MAT1A = conditions: HepG2, mimic transfection 72 h
Experimental: as §1, §2, §3

MAT2A = conditions: HepG2, mimic transfection 72 h
Experimental: as §1, §2, §3

MAT2B = conditions: HepG2, mimic transfection 72 h
Experimental: as §1, §2, §3

Substance: hsa-miR-21-3p (CAACACCAGUCGAUGGGCUGU; listed as RNA, chemistry not given here) [miR-21-3p mimic]
- decrease in protein expression of ACACA (ACACA): 2.3 fold
- decrease in protein expression of ACACB (ACACB): 1.6 fold
- decrease in protein level of DGAT2 (DGAT2): 3.3 fold
- MAT1A protein expression increase (MAT1A): 1.7 fold
- MAT2A protein expression decrease (MAT2A): 2.6 fold
- MAT2B protein expression decrease (MAT2B): 3.4 fold
